From ChEMBL document CHEMBL1201862, “PubChem BioAssay data set” (2004)
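1) Cells in 96-well plates. 2) Compound, 48 h, 5 concentrations. 3) Linear interpolation between surrounding doses. 4) Unreached endpoint = highest concentration. GI50 marks 50% less growth.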 Activity calls are given as the source filed them. Cut-off read from the data, not from the text of the source: active = GI50 up to about 1.1 µM and inactive = higher.

Assays:
Experiment in all cases: growth of human tumour cells (NCI), 48 h
RXF 393 = system: RXF 393
U-251 = system: U-251
SNB-75 = system: SNB-75
786-0 = system: 786-0
UACC-257 = system: UACC-257
M14 = system: M14
BT-549 = system: BT-549
IGROV-1 = system: IGROV-1
T47D = system: T47D
CAKI-1 = system: CAKI-1
NCI-H226 = system: NCI-H226
SN12C = system: SN12C
SW-620 = system: SW-620
Hs-578T = system: Hs-578T
A549 = system: A549
UACC-62 = system: UACC-62
COLO 205 = system: COLO 205
RPMI-8226 = system: RPMI-8226
SK-MEL-2 = system: SK-MEL-2

Measured: GI50

COc1cc2c(cc1OCCN1C(=O)c3cccc4cccc(c34)C1=O)N=C[C@@H]1CCCN1C2=O
inactive: RXF 393 7.8 µM | U-251 6.15 µM | SNB-75 13.3 µM | 786-0 7.96 µM | UACC-257 9.44 µM | M14 8.34 µM | BT-549 9.82 µM | IGROV-1 3.11 µM | T47D 9.35 µM | CAKI-1 7.5 µM | NCI-H226 7.26 µM | SN12C 7.93 µM | SW-620 7.66 µM | Hs-578T 7.8 µM | A549 8.65 µM | UACC-62 7.93 µM | COLO 205 8.32 µM | RPMI-8226 9.27 µM | SK-MEL-2 7.29 µM

COC(=O)c1ccc2c(c1)sc1nc(-c3ccc(OC)cc3)cn12
inactive: RXF 393 69.8 µM | U-251 31.7 µM | SNB-75 34.8 µM | 786-0 > 100 µM | UACC-257 49 µM | M14 > 100 µM | BT-549 43.7 µM | IGROV-1 48.2 µM | T47D 35.2 µM | CAKI-1 > 100 µM | NCI-H226 > 100 µM | SN12C > 100 µM | SW-620 > 100 µM | Hs-578T 37.3 µM | A549 > 100 µM | UACC-62 > 100 µM | COLO 205 31.9 µM | RPMI-8226 32.4 µM | SK-MEL-2 > 100 µM

COc1ccc(OC)c([N+](=O)[O-])c1-c1nc2sc(Cl)cn2c1/C=N/N=C(N)N
inactive: RXF 393 20.1 µM | U-251 24.8 µM | SNB-75 10.1 µM | 786-0 42.9 µM | UACC-257 19.3 µM | M14 34.4 µM | BT-549 16.8 µM | IGROV-1 12.9 µM | T47D 17.8 µM | CAKI-1 17.1 µM | NCI-H226 18.2 µM | SN12C 17.3 µM | SW-620 20.2 µM | Hs-578T 19.1 µM | A549 23.2 µM | UACC-62 13.3 µM | COLO 205 15.3 µM | RPMI-8226 26.9 µM | SK-MEL-2 18.6 µM

COc1cccc(CCNc2c(C#N)c3nc4ccccc4n3c3ccccc23)c1
inactive: M14 4.23 µM | T47D 2.17 µM | NCI-H226 1.58 µM | SN12C 3.19 µM | A549 1.33 µM | SK-MEL-2 > 41.6 µM
active: RXF 393 0.607 µM | U-251 0.721 µM | SNB-75 0.404 µM | 786-0 0.541 µM | UACC-257 0.851 µM | BT-549 0.618 µM | IGROV-1 0.433 µM | CAKI-1 1.05 µM | SW-620 0.51 µM | Hs-578T 0.498 µM | UACC-62 0.316 µM | COLO 205 0.447 µM | RPMI-8226 0.426 µM

CS(=O)(=O)c1nc(-c2cc3c(c(S(C)(=O)=O)n2)CCCC3)cc2c1CCCC2
inactive: RXF 393 26.1 µM | U-251 > 55.3 µM | SNB-75 6.75 µM | 786-0 41 µM | UACC-257 > 100 µM | M14 > 100 µM | BT-549 > 43.2 µM | IGROV-1 > 21.8 µM | T47D > 100 µM | CAKI-1 > 39.9 µM | NCI-H226 > 100 µM | SN12C > 100 µM | SW-620 > 100 µM | Hs-578T 12.4 µM | A549 > 100 µM | UACC-62 > 38.4 µM | COLO 205 > 100 µM | RPMI-8226 > 100 µM | SK-MEL-2 > 54.3 µM

N=C(N)NS(=O)(=O)c1ccc(NNC(=O)c2cccc3c(O)c4ccccc4nc23)cc1
inactive: RXF 393 38.1 µM | U-251 32.8 µM | SNB-75 30.7 µM | 786-0 38.4 µM | UACC-257 31.6 µM | M14 17.4 µM | BT-549 21.7 µM | IGROV-1 24.9 µM | T47D 17.7 µM | CAKI-1 34.6 µM | NCI-H226 25.5 µM | SN12C 33.8 µM | SW-620 32.7 µM | Hs-578T 63.2 µM | A549 38.7 µM | UACC-62 30.3 µM | COLO 205 24.7 µM | RPMI-8226 37.2 µM | SK-MEL-2 25.1 µM

COc1ccc(C(c2c[nH]c3ccc(Br)cc23)c2c[nH]c3ccc(Br)cc23)cc1
inactive: BT-549 1.51 µM
active: RXF 393 0.278 µM | U-251 0.22 µM | SNB-75 0.352 µM | 786-0 0.215 µM | UACC-257 0.29 µM | M14 0.237 µM | IGROV-1 0.264 µM | T47D 0.446 µM | CAKI-1 0.382 µM | NCI-H226 0.938 µM | SN12C 0.31 µM | SW-620 0.29 µM | Hs-578T 0.575 µM | A549 0.346 µM | UACC-62 0.218 µM | COLO 205 0.17 µM | RPMI-8226 0.175 µM | SK-MEL-2 0.366 µM

CCOC(=O)Cc1c(C)c2cc(C(=O)c3ccccc3)c(O)cc2oc1=O
inactive: RXF 393 41.1 µM | U-251 20.8 µM | SNB-75 30.4 µM | 786-0 39.8 µM | UACC-257 28.7 µM | M14 34.3 µM | BT-549 17.8 µM | IGROV-1 39.6 µM | T47D 28.2 µM | CAKI-1 30.6 µM | NCI-H226 27.3 µM | SN12C 31.6 µM | SW-620 45.1 µM | Hs-578T 26.2 µM | A549 25.8 µM | UACC-62 35.3 µM | COLO 205 18.5 µM | RPMI-8226 29.3 µM | SK-MEL-2 14.9 µM

CCOC(=O)c1nc2cc(C(F)(F)F)ccc2nc1Oc1ccc(C(=O)OC)cc1
inactive: RXF 393 85.5 µM | U-251 > 100 µM | SNB-75 > 100 µM | 786-0 > 100 µM | UACC-257 > 100 µM | M14 64.3 µM | BT-549 > 100 µM | IGROV-1 > 100 µM | T47D > 100 µM | CAKI-1 > 100 µM | NCI-H226 > 100 µM | SN12C > 100 µM | SW-620 > 100 µM | Hs-578T > 100 µM | A549 > 100 µM | UACC-62 > 100 µM | COLO 205 > 100 µM | RPMI-8226 > 100 µM | SK-MEL-2 > 100 µM

O=[N+]([O-])/C(C(Cl)=C(Cl)Cl)=C(\Nc1cccc2ccccc12)Sc1ccccc1
inactive: RXF 393 12.9 µM | U-251 11.4 µM | SNB-75 19.2 µM | 786-0 18.4 µM | UACC-257 14.8 µM | M14 24.9 µM | BT-549 18.4 µM | T47D 19.5 µM | CAKI-1 15.5 µM | NCI-H226 16.1 µM | SN12C 20.2 µM | SW-620 8.53 µM | Hs-578T 12.8 µM | A549 19.7 µM | UACC-62 10.8 µM | COLO 205 15.1 µM | RPMI-8226 6.89 µM | SK-MEL-2 14.6 µM

Nc1c(C(=O)O)c2ccc([N+](=O)[O-])cc2c(=O)n1-c1nc2ccccc2s1
inactive: RXF 393 > 100 µM | U-251 > 100 µM | SNB-75 > 100 µM | 786-0 > 100 µM | M14 > 100 µM | BT-549 > 100 µM | IGROV-1 > 100 µM | T47D > 100 µM | CAKI-1 > 100 µM | NCI-H226 > 100 µM | SN12C > 100 µM | SW-620 > 100 µM | Hs-578T > 100 µM | A549 > 100 µM | UACC-62 > 100 µM | COLO 205 > 100 µM | RPMI-8226 > 100 µM | SK-MEL-2 > 100 µM

COc1ccc(Oc2nc3cc(C(F)(F)F)ccc3nc2C(C)C)cc1
inactive: RXF 393 15.8 µM | U-251 23.1 µM | SNB-75 25.4 µM | 786-0 36 µM | UACC-257 26.1 µM | M14 31.6 µM | BT-549 22.4 µM | IGROV-1 23.3 µM | T47D 15.1 µM | CAKI-1 35.2 µM | NCI-H226 21 µM | SN12C 24.5 µM | SW-620 30.8 µM | Hs-578T 31.6 µM | A549 31.1 µM | UACC-62 28.2 µM | COLO 205 16 µM | RPMI-8226 19.4 µM | SK-MEL-2 18.5 µM

CC(C)(C)C1=CC(=C2C=Cc3cc(O)ccc3O2)C=C(C(C)(C)C)C1=O
inactive: RXF 393 1.45 µM | U-251 1.39 µM | SNB-75 1.73 µM | 786-0 1.36 µM | UACC-257 1.57 µM | M14 1.69 µM | BT-549 1.79 µM | IGROV-1 1.59 µM | CAKI-1 1.62 µM | NCI-H226 1.85 µM | SN12C 1.63 µM | SW-620 1.38 µM | Hs-578T 2.27 µM | A549 1.5 µM | UACC-62 1.38 µM | COLO 205 1.72 µM | SK-MEL-2 1.63 µM
active: T47D 0.627 µM | RPMI-8226 0.782 µM

COC(=O)C1OC(O[C@H]2CC[C@]3(C)[C@H]4CC=C5[C@@H]6CC(C)(C)CC[C@]6(C(=O)OC6OCC(O)C(O)C6OC6OC(C)C(OC7OCC(OC8OCC(O)C(O)C8O)C(O)C7O)C(O)C6O)[C@H](O)C[C@@]5(C)[C@]4(C)CC[C@H]3C2(C)C)C(O)C(O)C1O (some centres undefined)
inactive: RXF 393 11.4 µM | U-251 5.83 µM | SNB-75 3.44 µM | 786-0 6.32 µM | UACC-257 3.09 µM | M14 1.85 µM | BT-549 2.04 µM | IGROV-1 4.57 µM | T47D 1.43 µM | CAKI-1 2.87 µM | NCI-H226 1.52 µM | SN12C 1.8 µM | SW-620 5.14 µM | Hs-578T 6.15 µM | A549 2.93 µM | UACC-62 3.29 µM | COLO 205 1.66 µM | RPMI-8226 5.5 µM | SK-MEL-2 3.02 µM
